Measurements taken from the supplement of paper PMC4862054.

Tests used:
Details in all cases: incubation time: 72 h
[1] = system: SK-BR-3; assay: normalised response (% of control), CellTiter-Glo; higher = more viable cells (100 = DMSO, 0 = benzethonium chloride kill control)
Experimental: (§1)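 DSRT, 72 h incubation, CellTox Green / CellTiter-Glo readout. Signal is normalised to DMSO and benzethonium chloride controls. Value is the normalised response at dose 3.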

[2] = system: Hs578T; assay: as above
Experimental: as §1

[3] = system: HCC1143; assay: as above
Experimental: as §1

[4] = system: CAL-148; assay: as above
Experimental: as §1

[5] = system: HDQ-P1; assay: as above
Experimental: as §1

[6] = system: CAL-120; assay: as above
Experimental: as §1

[7] = system: MDA-MB-436; assay: as above
Experimental: as §1

[8] = system: MDA-MB-453; assay: as above
Experimental: as §1

[9] = system: BT-474; assay: as above
Experimental: as §1

[10] = system: HCC1599; assay: as above
Experimental: as §1

[11] = system: MCF-10A; assay: as above
Experimental: as §1

[12] = system: MDA-MB-231; assay: as above
Experimental: as §1

[13] = system: MDA-MB-468; assay: as above
Experimental: as §1

[14] = system: BT-549; assay: as above
Experimental: as §1

[15] = system: HCC1937; assay: as above
Experimental: as §1

[16] = system: CAL-85-1; assay: as above
Experimental: as §1

[17] = system: MFM-223; assay: as above
Experimental: as §1

[18] = system: CAL-51; assay: as above
Experimental: as §1

[19] = system: DU-4475; assay: as above
Experimental: as §1

[20] = system: Hs578T; assay: normalised response (% of control), CellTox Green; higher = less cell death (100 = DMSO, 0 = benzethonium chloride kill control)
How it was run: (§2)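 Values are normalised signals, each belonging to one concentration of the series. Breast cancer cells (20 µl suspension) were seeded into 384-well plates with compound at 5 concentrations in 10-fold steps over a compound-specific 10,000-fold range and incubated 72 h. Readouts were CellTox Green fluorescence (485/520 nm), then CellTiter-Glo luminescence after 10 min at room temperature, with each plate set to 0.1 % DMSO as 100 and a positive kill control as 0.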

[21] = system: HCC1143; assay: as above
How it was run: as §2

[22] = system: CAL-148; assay: as above
How it was run: as §2

[23] = system: CAL-120; assay: as above
How it was run: as §2

[24] = system: MDA-MB-436; assay: as above
How it was run: as §2

[25] = system: MDA-MB-453; assay: as above
How it was run: as §2

[26] = system: BT-474; assay: as above
How it was run: as §2

[27] = system: HCC1599; assay: as above
How it was run: as §2

[28] = system: MCF-10A; assay: as above
How it was run: as §2

[29] = system: MDA-MB-231; assay: as above
How it was run: as §2

[30] = system: MDA-MB-468; assay: as above
How it was run: as §2

[31] = system: BT-549; assay: as above
How it was run: as §2

[32] = system: HCC1937; assay: as above
How it was run: as §2

[33] = system: CAL-85-1; assay: as above
How it was run: as §2

[34] = system: MFM-223; assay: as above
How it was run: as §2

[35] = system: CAL-51; assay: as above
How it was run: as §2

[36] = system: DU-4475; assay: as above
How it was run: as §2

[37] = system: HDQ-P1; assay: as above
How it was run: as §2

| SMILES | normalised response [1] | normalised response [2] | normalised response [3] | normalised response [4] | normalised response [5] | normalised response [6] | normalised response [7] | normalised response [8] | normalised response [9] | normalised response [10] | normalised response [11] | normalised response [12] | normalised response [13] | normalised response [14] | normalised response [15] | normalised response [16] | normalised response [17] | normalised response [18] | normalised response [19] | normalised response [20] | normalised response [21] | normalised response [22] | normalised response [23] | normalised response [24] | normalised response [25] | normalised response [26] | normalised response [27] | normalised response [28] | normalised response [29] | normalised response [30] | normalised response [31] | normalised response [32] | normalised response [33] | normalised response [34] | normalised response [35] | normalised response [36] | normalised response [37] |
| --- | --- | --- | --- | --- | --- | --- | --- | --- | --- | --- | --- | --- | --- | --- | --- | --- | --- | --- | --- | --- | --- | --- | --- | --- | --- | --- | --- | --- | --- | --- | --- | --- | --- | --- | --- | --- | --- |
| CCN1CCN(c2ccc(Nc3cc(N(C)C(=O)Nc4c(Cl)c(OC)cc(OC)c4Cl)ncn3)cc2)CC1 [NVP-BGJ398] (10 nM) | 97.7% | 99.9% | 100% | 97.2% | 104% | 91.4% | 95.2% | 92.7% | 102% | 115% | 98.1% | 93.2% | 99.4% | 99.4% | 96.9% | 100% | 95.8% | 58.6% | 97.8% | 92% | 81.9% | 101% | 96.6% | 103% | 99.5% | 98.8% | 91.5% | 100% | 99.2% | 154% | 95% | 106% | 112% | 89.8% | 76% | 98.7% |  |
| C=CCNC1=C2C[C@@H](C)C[C@H](OC)[C@H](O)[C@@H](C)/C=C(\C)[C@H](OC(N)=O)[C@@H](OC)/C=C\C=C(/C)C(=O)NC(=CC1=O)C2=O [Tanespimycin] (100 nM) | 44.2% | 66.7% | 49.5% | 85.5% | 61.1% | 85.8% | 47.3% | 27.9% | 99.3% | 93.8% | 50% | 95.9% | 97.3% | 47.2% | 70.8% | 98.8% | 53.7% | 47.6% | 86.4% | 100% | 90.8% | 71.8% | 90.5% | 67.8% | 84.5% | 76.6% | 103% | 69.5% |  | 111% | 91.7% | 98.7% | 74.2% | 99% | 82.5% | 93.8% | 81.7% |
| C[C@]1(c2nc3c(C(N)=O)cccc3[nH]2)CCCN1 [Veliparib] (100 nM) | 95.2% | 102% | 100% | 96.4% | 102% | 96.5% | 99% | 102% | 98.3% | 102% | 96.5% | 105% | 96.5% | 101% | 101% | 105% | 98.6% | 76.4% | 103% | 111% | 95.9% | 103% | 98.3% | 61.1% | 103% | 101% | 115% |  | 95.9% | 107% | 108% | 87.8% | 105% | 108% | 96.9% | 102% | 109% |
| CS(=O)(=O)c1ccc(C(=O)Nc2ccc(Cl)c(-c3ccccn3)c2)c(Cl)c1 [Vismodegib] (100 nM) | 92.7% | 95.5% | 94.1% | 94.6% | 99% | 93.1% | 96% | 88.4% | 94.4% | 95.1% | 93% | 94.3% | 96.8% | 101% | 99% | 98.8% | 94.4% | 109% | 99.4% | 80% | 99.2% |  | 98.9% | 91.3% | 93.1% | 92.5% | 100% | 96.2% | 72.6% | 87% | 86.2% | 97.9% | 105% | 88.8% | 98.4% | 101% | 108% |
